{
  "source": "patent US20130150346A1",
  "about": "“Use of FAAH Inhibitors for Treating Parkinson's Disease and Restless Legs Syndrome” (Ironwood Pharmaceutical, Inc., priority 2010, published 2013)",
  "key": {"MPTP-lesioned marmosets [1]": {"tested_on": "MPTP-lesioned marmosets", "test": "Rating of parkinsonian disability, dyskinesia and psychosis in MPTP-lesioned marmosets", "format": "in vivo, common marmosets (Callithrix jacchus)", "details": "L-DOPA 20 mg/kg s.c. alone, summed 2-4 h", "method": "(§1) Six common marmosets (Callithrix jacchus; female; weight, 350-500 g (Harlan, Madison, Wis., USA)) were kept under conditions of controlled temperature (25±2° C.) and a 12-hour light/dark cycle (lights on 6:30 a.m.). Animals were group housed and had access to food, fresh-fruit supplements and water ad libitum and their home cage environment was enriched with primate toys, perches and auditory stimuli. Prior to start of studies, animals were acclimatized to handling, blood collection and administration of treatments (oral syringe feeding and subcutaneous injection) as well as transfer to observation cages for assessment of behavior. A parkinsonian syndrome was induced by once-daily subcutaneous administration of MPTP hydrochloride (Sigma, Canada; 2 mg/kg base concentration in 0.9% saline) for 5 consecutive days. Following this, animals were allowed to recover for 12 weeks to allow parkinsonian symptoms to develop and stabilize. […] Treatment-related complications including dyskinesia and psychosis-like behaviors were evoked by twice-daily treatment with L-DOPA p.o. (as Prolopa®, Roche Canada, Ontario, equivalent to 15 mg/kg L-DOPA and 3.5 mg/kg benserazide) for a minimum of 30 days. […] Disord. 21:839-846; Visanji et al. (2008) Mov. Disord. 23:1922-1925; Visanji et al (2009) Neurobiol Dis. 35: 184-192]. After this time, the animals were used in several studies to evaluate potential anti-parkinsonian and anti-dyskinetic agents. A minimum period of two weeks was allowed between completing any prior study and commencing this study, a period in excess of ten half-lives since administration of any previously employed experimental drug. Throughout the course of the study, on days not requiring plasma sampling or behavioral observations, animals were treated once daily with oral L-DOPA therapy, given at 10:00 a.m. to maintain stable levels of complications. Marmosets treated with MPTP as described in this example are referred to as MPTP-lesioned marmosets.\n(§2) To assess the effect of treatment on plasma FAAH substrate level, total activity, high activity time and count, data were analyzed using a parametric repeated-measures (RM) 1-way analysis of variance (ANOVA) followed by a Student Newman-Keuls Multiple Comparison post hoc test. To assess the effect of treatment on plasma L-DOPA level a paired, two-tailed t-test was used. All FAAH (AEA, OEA, PEA) subbstrate and L-DOPA plasma level data and activity data are presented as the group mean and SEM For measures of parkinsonian disability, dyskinesia and psychosis, data were analyzed via Friedman's test with Dunn's Multiple Comparison post hoc test. […] In all cases, p<0.05 was taken to represent a significant difference.\n(§3) MPTP hydrochloride (Sigma, Canada) was dissolved in 0.9% NaCl sterile solution to a concentration of 0.2 mg/ml (freebase) and administered at 1 ml/kg. Maintenance L-DOPA, administered as Prolopa® capsules (Roche, Mississauga, ON, Canada) containing 50 mg L-DOPA and 12.5 mg benserazide (freebase) was dissolved in Gatorade sports beverage (The Gatorade Company, Chicago, Ill.) prior to oral administration by syringe at a volume of 10 ml/kg. On days of behavioral assessment, L-DOPA (20 mg/kg, freebase) was prepared from the methyl ester form (Sigma, Canada) in combination with benserazide hydrochloride (5 mg/kg, freebase, Sigma, Canada) dissolved in 0.9% sterile saline containing 0.1% ascorbate (Sigma, Canada) and 0.05% absolute ethanol. URB597 (Cayman Chemical, Ann Arbor, Mich.) was formulated in a vehicle containing 50% corn oil (Professional Compounding Centers of America (PCCA), Houston, Tex.) and 50% nutritional drink Ensure™ (Abbott Nutrition, Chicago, Ill.) to make the suspension palatable for marmoset oral dosing. Requisite amounts of URB597 were weighed into sterile 50 ml polypropylene tubes (for the 3, 10, 30 and 60 mg/kg doses, 12, 40, 120 and 240 mg were weighed respectively). Then, 10 ml Corn oil was added and mixed until homogenous."}, "MPTP-lesioned macaques": {"tested_on": "MPTP-lesioned macaques", "test": "Motor activity (total activity, high activity time and counts) in MPTP-lesioned macaques treated with URB597 and L-DOPA", "format": "in vivo, cynomolgus monkeys (Macaca fascicularis)"}, "MPTP-lesioned marmosets [2]": {"tested_on": "MPTP-lesioned marmosets", "test": "Motor activity (passive infra-red sensors: total activity, high activity counts and time) in MPTP-lesioned marmosets", "format": "in vivo, common marmosets (Callithrix jacchus)", "method": "as §1, §2, §3"}, "[3]": {"details": "L-DOPA 20 mg/kg s.c. alone, 2-4 h, mean±SEM, n=6"}, "[4]": {"details": "L-DOPA 20 mg/kg s.c. alone, 2-4 h, p<0.001"}, "[5]": {"details": "L-DOPA 20 mg/kg s.c. alone, 2-4 h, p<0.05"}},
  "data": [
    {"smiles": "N[C@@H](Cc1ccc(O)c(O)c1)C(=O)O", "note": "[L-DOPA, 3,4-dihydroxyphenylalanine]", "values": [
      {"measurement": "psychosis score (median)", "setting": "MPTP-lesioned marmosets [1]; IQR 0-0 as printed, n=6", "value": 0},
      {"measurement": "dyskinesia score (median)", "setting": "MPTP-lesioned marmosets [1]; IQR 10-29, n=6", "value": 20},
      {"measurement": "parkinsonian disability score (median)", "setting": "MPTP-lesioned marmosets [1]; maximum 432, IQR 57-111, n=6", "value": 80},
      {"measurement": "total activity counts, high activity time and counts compared to normal, unlesioned macaques", "setting": "MPTP-lesioned macaques; L-DOPA p.o. (30 to 45 mg/kg), 1 to 3.5 hrs after administration", "value": "higher"},
      {"measurement": "total activity counts, high activity time and high activity counts compared to normal macaques", "setting": "MPTP-lesioned macaques; L-DOPA p.o. alone, between 2 and 3 h after L-DOPA", "value": "significantly higher"},
      {"measurement": "total activity counts", "setting": "MPTP-lesioned marmosets [2]; L-DOPA 20 mg/kg s.c. alone (vehicle p.o.), peak dose period 2-4 h, mean±SEM, n=6", "value": "2782±682", "unit": "counts"},
      {"measurement": "high activity counts", "setting": "MPTP-lesioned marmosets [2]; [3]", "value": "2170±778", "unit": "counts"},
      {"measurement": "high activity time", "setting": "MPTP-lesioned marmosets [2]; [3]", "value": "53.3 ± 15.2", "unit": "min"},
      {"measurement": "increase in high activity time compared to normal, non-MPTP-lesioned animals", "setting": "MPTP-lesioned marmosets [2]; [4]", "value": 167, "unit": "%"},
      {"measurement": "increase in total activity compared to vehicle (s.c.)-treated, MPTP-lesioned animals", "setting": "MPTP-lesioned marmosets [2]; [4]", "value": 379, "unit": "%"},
      {"measurement": "increase in high activity counts compared to normal, non-MPTP-lesioned animals", "setting": "MPTP-lesioned marmosets [2]; [5]", "value": 120, "unit": "%"},
      {"measurement": "increase in total activity compared to non-treated, non-MPTP-lesioned (normal) animals", "setting": "MPTP-lesioned marmosets [2]; [5]", "value": 77, "unit": "%"},
      {"measurement": "period following drug administration in which total activity was significantly increased compared to vehicle (s.c.)-treated animals", "setting": "MPTP-lesioned marmosets [2]; L-DOPA 20 mg/kg s.c. alone, 6 h time course, 30 min intervals", "value": 3.5, "unit": "h"}
    ]}
  ]
}
